# Results: patent US20240208968A1, “ALPHA V BETA 6 AND ALPHA V BETA 1 INTEGRIN INHIBITORS AND USES THEREOF” (DiCE Molecules SV, Inc., priority 2021, published 2024)
# Structures can show the parent of a compound that is named as a salt.
# How the values were obtained:
# αvβ1 = αvβ1 (Homo sapiens, UniProt P05556+P06756); assay: Solid Phase Integrin αvβ1 Assay; assay type: binding
# Protocol: (§1) The compounds exemplified in this document were tested for their ability to inhibit αvβ1 and αvβ6 in below described solid phase integrin assays.
# Solid Phase Integrin αvβ1 Assay
# 96-well microtiter plates (4 HBX Immulon; Thermo Fisher Scientific, Waltham, MA) were coated with 100 μL/well of 1 μg/mL recombinant TGFb1-LAP in TBS at 4° C., overnight. The coating solution was removed, and plates were blocked with 200 μL/well of blocking and binding buffer (2% BSA/TBST, 1 mM MnCl2) at room temperature for 1 hr. Blocking buffer was removed and 50 μL of binding buffer and testing compounds were added. 50 μL of diluted αvβ1 (0.2 ug/mL in binding buffer) was added to wells (100 μL/well total) for and plates incubated for 90 min at room temperature. Wells were washed thrice with washing buffer (TBS, 0.05% Tween, 1 mM MnCl2) and plates were incubated with 100 μL/well of a 1:12500 dilution of streptavidin-horseradish peroxidase conjugate (Thermo Fisher Scientific) in binding buffer for 20 min at room temperature. Bound protein was detected using the substrate TMB. The IC50 values for testing compounds were calculated by Levenberg-Marquardt four parameter fitting logistics.
# αvβ6 = αvβ6 (Homo sapiens, UniProt P06756+P18564); assay: Solid Phase Integrin αvβ6 Assay; assay type: binding
# Sequence of αvβ6 (P06756 31-992 limits assumed): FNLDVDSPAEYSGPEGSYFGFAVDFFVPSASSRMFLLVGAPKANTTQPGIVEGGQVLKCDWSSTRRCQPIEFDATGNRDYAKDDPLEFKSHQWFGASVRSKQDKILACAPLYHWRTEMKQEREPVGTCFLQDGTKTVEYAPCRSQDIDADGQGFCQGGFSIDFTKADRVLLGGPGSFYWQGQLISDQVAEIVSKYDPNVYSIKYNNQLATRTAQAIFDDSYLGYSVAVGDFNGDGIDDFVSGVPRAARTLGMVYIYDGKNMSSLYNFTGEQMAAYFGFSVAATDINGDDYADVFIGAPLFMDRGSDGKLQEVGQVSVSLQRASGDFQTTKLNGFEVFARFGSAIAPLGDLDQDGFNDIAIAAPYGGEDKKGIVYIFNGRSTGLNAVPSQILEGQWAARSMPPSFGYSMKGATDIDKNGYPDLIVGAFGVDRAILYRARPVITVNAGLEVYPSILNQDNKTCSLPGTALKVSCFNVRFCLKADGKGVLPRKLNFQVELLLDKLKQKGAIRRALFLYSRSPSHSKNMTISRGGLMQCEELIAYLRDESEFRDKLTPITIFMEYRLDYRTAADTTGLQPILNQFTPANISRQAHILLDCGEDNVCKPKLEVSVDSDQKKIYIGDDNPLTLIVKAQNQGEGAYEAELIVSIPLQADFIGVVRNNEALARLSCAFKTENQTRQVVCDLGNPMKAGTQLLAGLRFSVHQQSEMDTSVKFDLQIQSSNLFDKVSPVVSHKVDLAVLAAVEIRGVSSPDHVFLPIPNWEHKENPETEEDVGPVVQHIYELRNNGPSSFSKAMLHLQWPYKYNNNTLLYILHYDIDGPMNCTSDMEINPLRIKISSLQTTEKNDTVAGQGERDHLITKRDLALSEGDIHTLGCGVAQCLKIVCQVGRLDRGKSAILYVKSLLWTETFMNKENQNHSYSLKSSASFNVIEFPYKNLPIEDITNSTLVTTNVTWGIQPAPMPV
# Sequence of αvβ6 (P18564 22-707 limits assumed): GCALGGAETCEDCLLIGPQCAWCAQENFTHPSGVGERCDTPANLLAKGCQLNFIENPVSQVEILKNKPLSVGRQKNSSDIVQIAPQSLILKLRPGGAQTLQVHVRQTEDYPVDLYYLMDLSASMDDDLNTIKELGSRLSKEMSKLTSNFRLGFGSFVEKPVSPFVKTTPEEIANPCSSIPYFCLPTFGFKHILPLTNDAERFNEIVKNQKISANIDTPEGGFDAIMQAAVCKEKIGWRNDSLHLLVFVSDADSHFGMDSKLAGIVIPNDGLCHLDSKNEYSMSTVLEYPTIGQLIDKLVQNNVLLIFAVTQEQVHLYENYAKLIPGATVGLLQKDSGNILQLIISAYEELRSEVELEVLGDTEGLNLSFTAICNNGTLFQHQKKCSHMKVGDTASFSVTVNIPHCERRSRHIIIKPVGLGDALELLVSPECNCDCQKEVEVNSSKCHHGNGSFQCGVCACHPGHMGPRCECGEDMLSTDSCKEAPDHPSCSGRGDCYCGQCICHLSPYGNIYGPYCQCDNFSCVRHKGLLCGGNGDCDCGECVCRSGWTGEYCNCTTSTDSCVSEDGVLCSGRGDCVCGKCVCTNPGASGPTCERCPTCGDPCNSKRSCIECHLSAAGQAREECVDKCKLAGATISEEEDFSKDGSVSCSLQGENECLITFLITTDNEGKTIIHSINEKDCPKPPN
# Protocol: as §1
# Solid Phase Integrin αvβ6 Assay
# 96-well microtiter plates (4 HBX Immulon; Thermo Fisher Scientific, Waltham, MA) were coated with 100 μL/well of 1 μg/mL recombinant TGFb1-LAP in TBS at 4° C., overnight. The coating solution was removed, and plates were blocked with 200 μL/well of blocking and binding buffer (2% BSA/TBST, 1 mM MnCl2) at room temperature for 1 hr. Blocking buffer was removed and 50 uL of binding buffer and testing compounds were added. 50 μL of diluted αvβ6 (0.2 μg/mL in binding buffer) was added to wells (100 uL/well total) and plates incubated for 1 hr at room temperature. Wells were washed thrice with washing buffer (TBS, 0.05% Tween, 1 mM MnCl2) and plates were incubated with 100 μL/well of a 1:12500) dilution of streptavidin-horseradish peroxidase conjugate (Thermo Fisher Scientific) in binding buffer for 20 min at room temperature. Bound protein was detected using the substrate TMB. The IC50 values for testing compounds were calculated by Levenberg-Marquardt four parameter fitting logistics.
# Sequence of αvβ1 (P06756 31-992 limits assumed): as the sequence (P06756 31-992 limits assumed) above
# Sequence of αvβ1 (P05556 21-728 limits assumed): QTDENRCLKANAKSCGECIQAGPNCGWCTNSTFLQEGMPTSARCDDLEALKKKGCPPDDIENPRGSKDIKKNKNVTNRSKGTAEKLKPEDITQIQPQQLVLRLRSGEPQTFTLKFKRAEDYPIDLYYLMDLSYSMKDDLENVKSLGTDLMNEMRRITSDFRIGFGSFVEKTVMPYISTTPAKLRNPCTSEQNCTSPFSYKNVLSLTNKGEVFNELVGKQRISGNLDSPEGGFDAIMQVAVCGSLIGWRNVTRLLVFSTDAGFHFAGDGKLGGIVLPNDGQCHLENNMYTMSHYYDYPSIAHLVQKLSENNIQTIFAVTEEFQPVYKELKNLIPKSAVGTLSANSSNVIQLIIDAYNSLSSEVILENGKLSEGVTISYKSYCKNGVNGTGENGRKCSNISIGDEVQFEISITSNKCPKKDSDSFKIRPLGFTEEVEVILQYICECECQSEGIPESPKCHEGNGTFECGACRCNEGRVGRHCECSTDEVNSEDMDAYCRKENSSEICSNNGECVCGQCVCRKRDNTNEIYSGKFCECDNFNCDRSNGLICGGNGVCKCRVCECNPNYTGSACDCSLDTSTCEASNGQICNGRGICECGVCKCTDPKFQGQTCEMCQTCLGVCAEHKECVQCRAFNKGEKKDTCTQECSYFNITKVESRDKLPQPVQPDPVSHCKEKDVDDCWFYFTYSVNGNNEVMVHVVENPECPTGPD
Structure (SMILES),IC50 (αvβ1) [nM],IC50 (αvβ6) [nM]
"O=C(NC[C@H](NS(=O)(=O)C1CCCCC1)C(=O)O)[C@@H]1CCCN(CCCc2ccc3c(n2)NCCC3)C1 [Compound 274, (S)-2-(cyclohexanesulfonamido)-3-((R)-1-(3-(5,6,7,8-tetrahydro-1,8-naphthyridin-2-yl)propyl)piperidine-3-carboxamido)propanoic acid hydrochloride]",< 100,< 100
O=C(O)[C@@H](CCO[C@@H]1CCCN(CCCc2ccc3c(n2)NCCC3)C1)c1ccc(C2CC2)cc1 [Compound 484],> 1000,> 1000
"O=C(O)C[C@H](OC[C@@H]1CCCN(CCCc2ccc3c(n2)NCCC3)C1)c1ccccc1 [Compound 294, (S)-3-phenyl-3-(((R)-1-(3-(5,6,7,8-tetrahydro-1,8-naphthyridin-2-yl)propyl)piperidin-3-yl)methoxy)propanoic acid]",> 1000,> 1000
O=C(O)[C@@](O)(CO[C@@H]1CCCN(CCCc2ccc3c(n2)NCCC3)C1)c1ccccc1 [Compound 453],> 1000,> 1000
O=C(O)[C@@H](CCO[C@@H]1CCCN(CCc2ccc3c(n2)NCCC3)C1)NC(=O)C12CCC(CC1)CC2 [Compound 383],< 100,100 to 1000
"O=C(O)C[C@H](NC(=O)[C@@H]1CCCN(CCCc2ccc3c(n2)NCCC3)C1)c1cccc(N2CCCC2=O)c1 [Compound 239, (S)-3-(3-(2-oxopyrrolidin-1-yl)phenyl)-3-((R)-1-(3-(5,6,7,8-tetrahydro-1,8-naphthyridin-2-yl)propyl)piperidine-3-carboxamido)propanoic acid]",< 100,< 100
"O=C(O)C[C@H](NC(=O)[C@@H]1CCCN(CCCc2ccc3c(n2)NCCC3)C1)c1ccc2c(c1)CCCC2 [Compound 204-A, 3-((R)-1-(3-(5,6,7,8-tetrahydro-1,8-naphthyridin-2-yl)propyl)piperidine-3-carboxamido)-3-(5,6,7,8-tetrahydronaphthalen-2-yl)propanoic acid]",< 100,< 100
"O=C(NC[C@@H](C(=O)O)c1cccc2ccccc12)[C@@H]1CCCN(CCCc2ccc3c(n2)NCCC3)C1 [Compound 250-A, 2-(naphthalen-1-yl)-3-((R)-1-(3-(5,6,7,8-tetrahydro-1,8-naphthyridin-2-yl)propyl)piperidine-3-carboxamido)propanoic acid]",< 100,< 100
O=C(O)[C@](O)(CO[C@@H]1CCCN(CCCc2ccc3c(n2)NCCC3)C1)c1ccccc1 [Compound 452],> 1000,> 1000
"O=C(O)C[C@H](NC(=O)[C@@H]1CCCN(CCCc2ccc3c(n2)NCCC3)C1)c1cc(F)cc(C(F)(F)F)c1 [Compound 208-B, 3-(3-fluoro-5-(trifluoromethyl)phenyl)-3-((R)-1-(3-(5,6,7,8-tetrahydro-1,8-naphthyridin-2-yl)propyl)piperidine-3-carboxamido)propanoic acid]",> 1000,100 to 1000
O=C(O)C[C@H](CO[C@@H]1CCCN(CCCc2ccc3c(n2)NCCC3)C1)c1cc(C2CC2)ccc1F [Compound 481],< 100,< 100
O=C(O)C[C@H](CC(=O)N[C@@H]1CCN(CCCCc2ccc3c(n2)NCCC3)C1)c1ccccc1 [Compound 415],100 to 1000,100 to 1000
O=C(O)[C@H](CCO[C@@H]1CCCN(CCc2ccc3c(n2)NCCC3)C1)NC(=O)C12CCC(CC1)CC2 [Compound 398],< 100,< 100
CN(C[C@@H]1CCCN(CCCc2ccc3c(n2)NCCC3)C1)[C@@H](CC(=O)O)c1cccc(Br)c1 [Compound 532],> 1000,> 1000
C[C@@H]1CC[C@H](C(=O)N[C@@H](CC(=O)O)c2ccccc2)CN1CCCc1ccc2c(n1)NCCC2 [Compound 346],< 100,< 100
O=C(NC[C@H](NS(=O)(=O)c1cccc2c1CCC2)C(=O)O)[C@@H]1CCCN(CCCc2ccc3c(n2)NCCC3)C1 [Compound 543],< 100,< 100
O=C(O)C[C@H](NC(=O)[C@@H]1CCCN(CCCc2ccc3c(n2)NCCC3)C1)c1cccc(-n2cccn2)c1 [Compound 537],< 100,–
O=C(N[C@@H](CNC(=O)[C@@H]1CCCN(CCCc2ccc3c(n2)NCCC3)C1)C(=O)O)c1cccc(C2CC2)c1 [Compound 370],–,< 100
CC(C)CNC(=O)[C@@H]1CCCC[C@H]1C(=O)N[C@@H](CNC(=O)[C@@H]1CCCN(CCCc2ccc3c(n2)NCCC3)C1)C(=O)O [Compound 526],< 100,–
"CC1(C)CN(c2cccc([C@@H](NC(=O)[C@@H]3CCCN(CCCc4ccc5c(n4)NCCC5)C3)C(F)(F)C(=O)O)c2)CCO1 [Compound 300, (R)-3-(3-(2,2-dimethylmorpholino)phenyl)-2,2-difluoro-3-((R)-1-(3-(5,6,7,8-tetrahydro-1,8-naphthyridin-2-yl)propyl)piperidine-3-carboxamido)propanoic acid]",< 100,–
O=C(N[C@@H](CNC(=O)[C@@H]1CCCN(CCCc2ccc3c(n2)NCCC3)C1)C(=O)O)c1c(F)cccc1F [Compound 310],–,100 to 1000
O=C(Cc1ccccc1Cl)N[C@@H](CNC(=O)[C@@H]1CCCN(CCCc2ccc3c(n2)NCCC3)C1)C(=O)O [Compound 545],–,< 100
O=C(NC[C@@H](C(=O)O)c1ccc(-c2ccccc2)cc1)[C@@H]1CCCN(CCCc2ccc3c(n2)NCCC3)C1 [Compound 343],–,< 100

# Further lines, results first:
IC50 (αvβ1) [nM],IC50 (αvβ6) [nM],Structure (SMILES)
–,< 100,O=C(Cc1ccccc1)N[C@@H](CNC(=O)[C@@H]1CCCN(CCCc2ccc3c(n2)NCCC3)C1)C(=O)O [Compound 550]
–,> 1000,CC1(C)CCCN(c2cccc([C@H](CNC(=O)[C@@H]3CCCN(CCCc4ccc5c(n4)NCCC5)C3)C(=O)O)c2)C1 [Compound 598]
–,< 100,O=C(NC[C@H](Nc1cc(-c2ccccc2)ncn1)C(=O)O)[C@@H]1CCCN(CCCc2ccc3c(n2)NCCC3)C1 [Compound 564]
–,< 100,O=C(NC[C@H](Nc1ccccc1C1CC(F)(F)C1)C(=O)O)[C@@H]1CCCN(CCCc2ccc3c(n2)NCCC3)C1 [Compound 590]
–,< 100,O=C(N[C@@H](CNC(=O)[C@@H]1CCCN(CCCc2ccc3c(n2)NCCC3)C1)C(=O)O)c1ccc2c(c1)CCC2 [Compound 548]
< 100,–,O=C(O)C[C@H](NC(=O)[C@@H]1CCCN(CCCc2ccc3c(n2)NCCC3)C1)c1cc(F)cc(C2CC2)c1 [Compound 558]
–,100 to 1000,CC1(C)CN(c2cccc([C@H](CNC(=O)[C@@H]3CCCN(CCCc4ccc5c(n4)NCCC5)C3)C(=O)O)c2)CCO1 [Compound 594]
–,< 100,CC1(C)COCCN1c1cccc([C@H](CNC(=O)[C@@H]2CCCN(CCCc3ccc4c(n3)NCCC4)C2)C(=O)O)c1 [Compound 596]
–,100 to 1000,CC1(C)CCN(c2cccc([C@H](CNC(=O)[C@@H]3CCCN(CCCc4ccc5c(n4)NCCC5)C3)C(=O)O)c2)CC1 [Compound 600]
–,100 to 1000,C[C@@H]1CN(c2cccc([C@H](CNC(=O)[C@@H]3CCCN(CCCc4ccc5c(n4)NCCC5)C3)C(=O)O)c2)C[C@H](C)O1 [Compound 602]
–,< 100,O=C(NC[C@H](Nc1cccc(C2CC(F)(F)C2)c1)C(=O)O)[C@@H]1CCCN(CCCc2ccc3c(n2)NCCC3)C1 [Compound 592]
–,< 100,O=C(NC[C@H](Nc1cccnc1C1CC(F)(F)C1)C(=O)O)[C@@H]1CCCN(CCCc2ccc3c(n2)NCCC3)C1 [Compound 591]
